Results from PubChem BioAssay (NCI).
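In this assay, cells in 96-well plates receive the compound at five concentrations for 48 hours. Endpoints are linearly interpolated between the surrounding concentrations. TGI is the concentration that stops growth completely.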

Legend:
Experiment in all cases: DTP human tumour cell line panel, 48 h
MALME-3M melanoma = test system: MALME-3M melanoma
A498 renal = test system: A498 renal
NCI-H226 lung = test system: NCI-H226 lung
COLO 205 colon = test system: COLO 205 colon
HCT-116 colon = test system: HCT-116 colon
A549 NSCLC = test system: A549 NSCLC
NCI-H522 lung = test system: NCI-H522 lung
NCI-H23 lung = test system: NCI-H23 lung
NCI/ADR-RES ovarian = test system: NCI/ADR-RES ovarian
HOP-92 NSCLC = test system: HOP-92 NSCLC
MDA-N = test system: MDA-N
T-47D breast = test system: T-47D breast

SMILES	TGI (MALME-3M melanoma) [µM]	TGI (A498 renal) [µM]	TGI (NCI-H226 lung) [µM]	TGI (COLO 205 colon) [µM]	TGI (HCT-116 colon) [µM]	TGI (A549 NSCLC) [µM]	TGI (NCI-H522 lung) [µM]	TGI (NCI-H23 lung) [µM]	TGI (NCI/ADR-RES ovarian) [µM]	TGI (HOP-92 NSCLC) [µM]	TGI (MDA-N) [µM]	TGI (T-47D breast) [µM]
COC(=O)c1ccccc1C1CN=NC12Cc1cc(C)ccc1C2=O (stereo not given)	> 100	> 100	> 100	> 100	> 100	> 100	> 100	> 100	> 100	> 100	> 100	> 100
CCOC(=O)c1c(N2CCOCC2)[nH]c(=O)c(C(c2ccco2)c2c(O)c(C(=O)OCC)c(N3CCOCC3)[nH]c2=O)c1O	> 100	> 100	> 100	> 100	> 100	> 100	> 100	> 100	> 100	> 100	> 100	> 100
CCOC(=O)c1ccc(N=c2sc3ccccc3nc2Nc2ccc(C(=O)OCC)cc2)cc1	> 100	> 100	> 100	> 100	> 100	> 100	77.6	> 100	> 100	> 100	> 100	> 100
CCOC(=O)C(SCCO)C(C(=O)OCC)n1ccc(=O)[nH]c1=O (stereo not given)	32.9	> 100	> 61.2	> 59.3	> 57.4	> 100	22.7	> 100	> 69.4	69.1	97.8	> 100
CC(=O)OCc1ccc2oc(=O)c(C(=O)Oc3ccccc3)cc2c1	> 100	> 100	> 100	> 100	30.6	> 100	> 100	> 100	> 100	40.2	> 100	37.3
COc1cc(CNNC(N)=S)cc(OC)c1OC	> 100	> 100	> 100	> 100	> 100	> 100	> 100	> 100	> 100	> 100	> 100	> 100
Cc1cn(CC2=NCC(C)N2)c(=O)[nH]c1=O (stereo not given)	> 100	> 100	> 100	> 100	> 100	> 100	> 100	> 100	> 100	> 100	> 100	> 100
Cc1ccc(S(=O)(=O)NNCNC(=O)c2ccccc2)cc1	> 100	–	> 100	> 100	> 100	> 100	> 100	> 100	> 100	> 100	> 100	> 100
